Publication PMC7614683, “A small molecule PI3Kα activator for cardioprotection and neuroregeneration” (Nature, 2023)

Target: T1, full length p110α/p85α (Homo sapiens, UniProt P42336)
T1 construct: Full-length human p110α was expressed either in a complex with full-length human p85α (for HTS, biochemistry and HDX-MS); 6xHis tag followed by TEV protease site (N); host or cells: Spodoptera frugiperda Sf9, baculovirus
Experiment: HDX-MS
Assay type: binding
Experimental: Sample preparation: HDX-MS experiments were carried out as described previously. […] In total, three biological replicates, i.e. three separate protein preparations, each with exchange experiments carried out in triplicate were conducted. Data presented in the manuscript is a single biological replicate. Data acquisition and analysis were as follows: Each sample was thawed and injected onto an M-Class Acquity UPLC with HDX Technology (Waters) kept at 0.1°C. Proteins were digested in-line using an Enzymate Pepsin Column (Waters, #186007233) at 15°C for 2 min at 200 μl/min. Peptic peptides were then eluted onto an Acquity UPLC BEH C18 Column (Waters, #186002346) equilibrated in Pepsin-A buffer (0.1% formic acid) and separated using a 5-35% gradient of Pepsin-B buffer (0.1% formic acid, 99% acetonitrile) over 7 min at a flowrate of 40 μl/min. Data were collected on a Waters Cyclic IMS, with an electrospray ionisation source, from 50-2000 m/z. Data were collected in the HDMS^E mode. A single pass of the cyclic IMS was conducted. A “blank” sample of protein dilution buffer with quench was run between samples, and carry-over of peptides was routinely monitored. Five replicates were used to identify non-deuterated peptides. Criteria used to include peptides in the HDX-MS dataset were: minimum intensity 5000, minimum sequence length 5, maximum sequence length 25, a minimum of 3 fragment ions, a minimum of 0.1 products per amino acid, a minimum score of 6.62, a maximum MH+ Error of 10 ppm, identification in at least two datasets with a retention time RSD of less than 10%. Data was analysed using Protein Lynx Global Server (Waters) and DynamX (Waters). All peptides were manually inspected for EX1 kinetics and sufficient quality of the peptide envelope. Data quality, experiment design, and reporting of data meets the criteria as determined by the HDX-MS community. Uptake files were created using Baryonyx. Data are available via ProteomeXchange with identifier PXD037721.

[1] = PK3CA_HUMAN peptide 177-186, time point 1 of 5
[2] = PK3CA_HUMAN peptide 177-186, time point 2 of 5
[3] = PK3CA_HUMAN peptide 177-186, time point 3 of 5
[4] = PK3CA_HUMAN peptide 177-186, time point 4 of 5
[5] = PK3CA_HUMAN peptide 177-186, time point 5 of 5
[6] = PK3CA_HUMAN peptide 186-202, time point 1 of 5
[7] = PK3CA_HUMAN peptide 186-202, time point 2 of 5
[8] = PK3CA_HUMAN peptide 186-202, time point 3 of 5
[9] = PK3CA_HUMAN peptide 186-202, time point 4 of 5
[10] = PK3CA_HUMAN peptide 186-202, time point 5 of 5
[11] = PK3CA_HUMAN peptide 207-219, time point 1 of 5
[12] = PK3CA_HUMAN peptide 207-219, time point 2 of 5
[13] = PK3CA_HUMAN peptide 207-219, time point 3 of 5
[14] = PK3CA_HUMAN peptide 207-219, time point 4 of 5
[15] = PK3CA_HUMAN peptide 207-219, time point 5 of 5
[16] = PK3CA_HUMAN peptide 220-237, time point 1 of 5
[17] = PK3CA_HUMAN peptide 220-237, time point 2 of 5
[18] = PK3CA_HUMAN peptide 220-237, time point 3 of 5
[19] = PK3CA_HUMAN peptide 220-237, time point 4 of 5
[20] = PK3CA_HUMAN peptide 220-237, time point 5 of 5
[21] = PK3CA_HUMAN peptide 224-238, time point 1 of 5
[22] = PK3CA_HUMAN peptide 224-238, time point 2 of 5
[23] = PK3CA_HUMAN peptide 224-238, time point 3 of 5
[24] = PK3CA_HUMAN peptide 224-238, time point 4 of 5
[25] = PK3CA_HUMAN peptide 224-238, time point 5 of 5
[26] = PK3CA_HUMAN peptide 238-250, time point 1 of 5
[27] = PK3CA_HUMAN peptide 238-250, time point 2 of 5
[28] = PK3CA_HUMAN peptide 238-250, time point 3 of 5
[29] = PK3CA_HUMAN peptide 238-250, time point 4 of 5
[30] = PK3CA_HUMAN peptide 238-250, time point 5 of 5
[31] = PK3CA_HUMAN peptide 238-259, time point 1 of 5
[32] = PK3CA_HUMAN peptide 238-259, time point 2 of 5
[33] = PK3CA_HUMAN peptide 238-259, time point 3 of 5
[34] = PK3CA_HUMAN peptide 238-259, time point 4 of 5
[35] = PK3CA_HUMAN peptide 238-259, time point 5 of 5
[36] = PK3CA_HUMAN peptide 241-250, time point 1 of 5
[37] = PK3CA_HUMAN peptide 241-250, time point 2 of 5

T1 sequence (P42336 whole entry): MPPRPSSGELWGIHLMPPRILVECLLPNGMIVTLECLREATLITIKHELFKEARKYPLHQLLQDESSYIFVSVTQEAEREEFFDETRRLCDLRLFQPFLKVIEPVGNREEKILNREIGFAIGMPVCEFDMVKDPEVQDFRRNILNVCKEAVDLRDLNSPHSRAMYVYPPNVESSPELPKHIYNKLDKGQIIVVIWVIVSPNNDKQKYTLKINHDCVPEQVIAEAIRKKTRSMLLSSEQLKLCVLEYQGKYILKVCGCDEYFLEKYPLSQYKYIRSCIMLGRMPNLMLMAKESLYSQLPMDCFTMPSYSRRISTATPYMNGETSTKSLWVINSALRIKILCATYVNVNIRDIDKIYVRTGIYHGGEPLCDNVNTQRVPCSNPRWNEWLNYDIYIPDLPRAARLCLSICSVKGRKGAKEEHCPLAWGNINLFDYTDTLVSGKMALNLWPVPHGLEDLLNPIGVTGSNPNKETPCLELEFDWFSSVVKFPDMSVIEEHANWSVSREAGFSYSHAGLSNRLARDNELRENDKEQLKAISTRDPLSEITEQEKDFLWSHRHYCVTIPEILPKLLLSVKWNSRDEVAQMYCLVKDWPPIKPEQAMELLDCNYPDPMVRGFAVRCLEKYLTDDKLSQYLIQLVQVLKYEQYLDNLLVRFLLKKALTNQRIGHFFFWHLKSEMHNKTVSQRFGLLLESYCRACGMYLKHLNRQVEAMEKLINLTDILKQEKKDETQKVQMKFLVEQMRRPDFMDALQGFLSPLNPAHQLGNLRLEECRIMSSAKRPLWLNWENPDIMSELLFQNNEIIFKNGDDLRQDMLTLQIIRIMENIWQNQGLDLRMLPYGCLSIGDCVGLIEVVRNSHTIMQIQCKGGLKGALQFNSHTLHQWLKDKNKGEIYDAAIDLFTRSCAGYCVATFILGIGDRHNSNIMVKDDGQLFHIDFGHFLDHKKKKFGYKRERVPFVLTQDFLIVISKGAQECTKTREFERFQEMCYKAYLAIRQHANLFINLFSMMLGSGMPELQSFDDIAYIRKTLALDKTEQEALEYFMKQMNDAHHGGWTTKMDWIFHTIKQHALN
T1 sequence (P27986 whole entry partner): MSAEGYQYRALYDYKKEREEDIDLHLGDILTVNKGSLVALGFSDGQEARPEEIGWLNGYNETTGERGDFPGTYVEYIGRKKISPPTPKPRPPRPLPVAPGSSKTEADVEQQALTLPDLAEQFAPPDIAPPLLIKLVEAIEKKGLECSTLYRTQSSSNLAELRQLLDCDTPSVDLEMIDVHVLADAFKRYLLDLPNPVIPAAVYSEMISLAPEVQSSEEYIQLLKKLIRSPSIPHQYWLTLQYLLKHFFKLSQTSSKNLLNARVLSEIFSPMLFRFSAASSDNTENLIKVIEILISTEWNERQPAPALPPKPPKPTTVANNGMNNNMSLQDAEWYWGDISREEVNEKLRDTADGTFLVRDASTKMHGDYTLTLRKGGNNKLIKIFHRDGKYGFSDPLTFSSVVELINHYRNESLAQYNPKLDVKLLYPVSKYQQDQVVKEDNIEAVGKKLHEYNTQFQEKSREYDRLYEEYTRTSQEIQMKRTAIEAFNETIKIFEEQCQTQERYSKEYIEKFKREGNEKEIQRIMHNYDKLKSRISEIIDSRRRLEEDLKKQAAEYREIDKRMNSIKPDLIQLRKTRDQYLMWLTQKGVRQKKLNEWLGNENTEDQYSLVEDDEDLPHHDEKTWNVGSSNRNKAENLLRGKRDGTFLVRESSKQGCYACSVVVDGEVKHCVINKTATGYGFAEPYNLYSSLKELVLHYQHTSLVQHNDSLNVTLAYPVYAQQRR

In the case of `CCN1CCN(c2ccc(Nc3cc(Nc4cccc5c4N(C(C)=O)CC5)ccn3)cc2)CC1` [Compound 1938], the “changes in HDX-MS protection of PI3Kα” value (250 μM 1938 or 5 μM BYL719) is reported as “protection of a region in the C-terminus of the kinase domain consisting of amino acids (AA) 1002-1016 of p110α”, the “HDX difference (%D)” value [1] is reported as -1.1% and the “HDX difference (Da)” value [1] is reported as -0.10 Da. The “HDX difference (%D)” value [2] was 0.188%, the “HDX difference (Da)” value [2] was 0.0169 Da and the “HDX difference (%D)” value [3] was 0.0654%. The “HDX difference (Da)” value [3] was 0.00589 Da, the “HDX difference (%D)” value [4] was -0.325% and the “HDX difference (Da)” value [4] was -0.03 Da. For the same molecule, the “HDX difference (%D)” value [5] was -0.186%, the “HDX difference (Da)” value [5] was -0.0168 Da and the “HDX difference (%D)” value [6] was -0.741%. The “HDX difference (Da)” value [6] was -0.10 Da, the “HDX difference (%D)” value [7] was 0.268% and the “HDX difference (Da)” value [7] was 0.0349 Da. The “HDX difference (%D)” value [8] was 0.253%, the “HDX difference (Da)” value [8] was 0.0328 Da and the “HDX difference (%D)” value [9] was -0.11%. The “HDX difference (Da)” value [9] was -0.0143 Da, the “HDX difference (%D)” value [10] was -0.0482% and the “HDX difference (Da)” value [10] was -0.00626 Da. For the same molecule, the “HDX difference (%D)” value [11] was -0.6%, the “HDX difference (Da)” value [11] was -0.07 Da and the “HDX difference (%D)” value [12] was 0.1%. The “HDX difference (Da)” value [12] was 0.0108 Da, the “HDX difference (%D)” value [13] was 0.0043% and the “HDX difference (Da)” value [13] was 0.000474 Da. For the same molecule, the “HDX difference (%D)” value [14] was -0.136%, the “HDX difference (Da)” value [14] was -0.0149 Da and the “HDX difference (%D)” value [15] was -0.4%. For the same molecule, the “HDX difference (Da)” value [15] was -0.0435 Da, the “HDX difference (%D)” value [16] was -0.3% and the “HDX difference (Da)” value [16] was -0.0451 Da. The “HDX difference (%D)” value [17] was 0.0936%, the “HDX difference (Da)” value [17] was 0.014 Da and the “HDX difference (%D)” value [18] was 0.319%. For the same molecule, the “HDX difference (Da)” value [18] was 0.05 Da, the “HDX difference (%D)” value [19] was -0.0933% and the “HDX difference (Da)” value [19] was -0.014 Da. For the same molecule, the “HDX difference (%D)” value [20] was -0.152%, the “HDX difference (Da)” value [20] was -0.0229 Da and the “HDX difference (%D)” value [21] was -0.8%. For the same molecule, the “HDX difference (Da)” value [21] was -0.0951 Da, the “HDX difference (%D)” value [22] was 0.43% and the “HDX difference (Da)” value [22] was 0.05 Da. For the same molecule, the “HDX difference (%D)” value [23] was 0.056%, the “HDX difference (Da)” value [23] was 0.00672 Da and the “HDX difference (%D)” value [24] was 0.37%. For the same molecule, the “HDX difference (Da)” value [24] was 0.0444 Da, the “HDX difference (%D)” value [25] was 0.9% and the “HDX difference (Da)” value [25] was 0.11 Da. For the same molecule, the “HDX difference (%D)” value [26] was -0.317%, the “HDX difference (Da)” value [26] was -0.038 Da and the “HDX difference (%D)” value [27] was 0.158%. For the same molecule, the “HDX difference (Da)” value [27] was 0.019 Da, the “HDX difference (%D)” value [28] was 0.185% and the “HDX difference (Da)” value [28] was 0.0222 Da. For the same molecule, the “HDX difference (%D)” value [29] was -0.357%, the “HDX difference (Da)” value [29] was -0.0429 Da and the “HDX difference (%D)” value [30] was 0.02%. The “HDX difference (Da)” value [30] was 0.00239 Da, the “HDX difference (%D)” value [31] was -0.7% and the “HDX difference (Da)” value [31] was -0.15 Da. For the same molecule, the “HDX difference (%D)” value [32] was 0.262%, the “HDX difference (Da)” value [32] was 0.0549 Da and the “HDX difference (%D)” value [33] was 0.265%. The “HDX difference (Da)” value [33] was 0.0556 Da, the “HDX difference (%D)” value [34] was -0.134% and the “HDX difference (Da)” value [34] was -0.0282 Da. The “HDX difference (%D)” value [35] was -0.22%, the “HDX difference (Da)” value [35] was -0.0463 Da and the “HDX difference (%D)” value [36] was -0.43%. The “HDX difference (Da)” value [36] was -0.04 Da, the “HDX difference (%D)” value [37] was 0.2% and the “HDX difference (Da)” value [37] was 0.0181 Da.
